This passage reports IC50 results from patent US10329282B2, “Rho-associated protein kinase inhibitor, pharmaceutical composition comprising the same, as well as preparation method and use thereof” (Beijing Tide Pharmaceutical Co., Ltd., priority 2017, dated 2019).

Sequence of ROCK2 (O75116 1-553): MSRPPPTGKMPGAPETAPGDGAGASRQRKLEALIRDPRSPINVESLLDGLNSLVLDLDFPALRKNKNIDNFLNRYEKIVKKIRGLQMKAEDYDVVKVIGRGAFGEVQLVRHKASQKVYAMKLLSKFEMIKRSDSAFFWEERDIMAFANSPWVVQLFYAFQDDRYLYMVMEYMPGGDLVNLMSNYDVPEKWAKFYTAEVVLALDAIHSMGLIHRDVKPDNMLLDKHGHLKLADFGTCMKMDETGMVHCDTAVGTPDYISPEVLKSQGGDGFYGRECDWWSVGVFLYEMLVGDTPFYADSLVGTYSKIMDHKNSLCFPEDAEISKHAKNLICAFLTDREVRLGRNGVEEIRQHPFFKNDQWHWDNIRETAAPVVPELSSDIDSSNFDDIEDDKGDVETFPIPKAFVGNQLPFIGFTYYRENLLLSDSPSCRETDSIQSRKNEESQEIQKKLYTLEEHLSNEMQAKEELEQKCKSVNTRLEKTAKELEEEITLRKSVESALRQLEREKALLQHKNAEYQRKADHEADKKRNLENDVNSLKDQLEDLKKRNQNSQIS

This assay has as its target ROCK2 (Homo sapiens (Human), UniProt O75116). Nature of the assay: ROCK2 kinase IC50 assay (CISBIO HTRF KinEASE-STK S2 kit). It is filed as biochemical. Particulars: ROCK2 from Carna Biosciences, 2 h incubation at room temperature. On the procedure:
The kinase IC50 was determined by a commercialized CISBIO kinase detection kit, HTRF KinEASE-STK S2 kit (62ST2PEC). ROCK2 (01-119) employed in the reaction was purchased from Carna Biosciences.
Before the assay, the following working solutions as needed were formulated with corresponding reagents according to the instruction of the kinase detection kit: 1×kinase buffer, 5×STK-52 substrate working solution (1.5 μM) and 5×ATP working solution (1.5 μM), 5×ROCK2 kinase working solution, 4×Streptavidin-XL665 working solution, and 4×STK-Ab-Cryptate 2 detection solution. Then the assay was performed according to the following procedure.
A solution of a compound at a concentration of 10000 nM was prepared with the 1×kinase buffer containing 2.5% DMSO. Gradient dilution of the solution of the compound was performed with the kinase buffer containing DMSO, so as to obtain solutions of a test compound at 9 different concentrations. In addition to wells of test compounds, a positive well (containing all the reagents except the compound) and a negative well (containing all the reagents except the test compound and kinase) were set. Except for the control wells (positive and negative wells), a solution of a test compound (4 μL) was added to each of the reaction wells, and a solution of 2.5% DMSO was added to the control wells. Then the substrate (2 μM, i.e., 2 μL 5×STK-S2 substrate working solution) was added to each of the reaction wells. The 5×ROCK2 kinase working solution (2 μL, containing 1.4 ng ROCK2 kinase) was added to each of the reaction wells except for the negative well, the volume of which was made up with the 1×kinase buffer (2 μL). The 5×ATP working solution (2 μL) was added to each of the reaction wells, and the mixtures were incubated at room temperature for 2 hours. After the kinase reaction was complete, the 4×Streptavidin-XL665 working solution was added to each of the reaction wells, the solutions were mixed, followed by immediate addition of the 4×STK-Ab-Cryptate 2 detection solution (5 μL), and the mixtures were incubated at room temperature for 1 hour. The fluorescence signal was read on ENVISION (Perkinelmer) (excitation wavelength: 320 nm, and emission wavelength: 665 nm and 615 nm). The inhibitory rate in each well was calculated based on the fluorescence intensity value: ER (Emission Ratio)=(fluorescence intensity at 665 nm/fluorescence intensity at 615 nm); inhibitory rate=(ERpositive−ERtest compound) (ERpositive−ERnegative)*100%. Curves were plotted and fitted to obtain the median inhibitory concentration (IC50) of each teat compound with the PRISM 5.0 software.
(TR-FRET usually uses a lanthanide donor and a delayed reading to cut background.)
Take `O=C(Nc1cnc2[nH]ccc2c1)c1cc2ccc(-c3nccc(Nc4ccc5[nH]ncc5c4)n3)cc2[nH]1` [TDI01258, 6-(4-((1H-indazol-5-yl)amino)pyrimidin-2-yl)-N-(1H-pyrrolo[2,3-b]pyridin-5-yl)-1H-indole-2-carboxamide]: 62 nM corresponded to half-maximal inhibition (IC50).
`CCN(CC)C(=O)c1cc2ccc(-c3ncc(OC)c(Nc4ccc(-c5cn[nH]c5)cc4)n3)cc2[nH]1` [TDI01823, 6-(4-((4-(1H-pyrazol-4-yl)phenyl)amino)-5-methoxypyrimidin-2-yl)-N,N-diethyl-1H-indole-2-carboxamide]: 336 nM corresponded to half-maximal inhibition (IC50).
As for `CCN(CCO)C(=O)c1cc2ccc(-c3nccc(Nc4ccc(-c5cn[nH]c5)cc4)n3)cc2[nH]1` [TDI01415, 6-(4-((4-(1H-pyrazol-4-yl)phenyl)amino)pyrimidin-2-yl)-N-ethyl-N-(2-hydroxyethyl)-1H-indole-2-carboxamide], the figure is 262 nM; as for `CC(C)(C)OC(=O)n1cc(NC(=O)c2cc3ccc(-c4nccc(Nc5ccc6[nH]ncc6c5)n4)cc3[nH]2)cn1` [TDI01200, tert-butyl 4-(6-(4-((1H-indazol-5-yl)amino)pyrimidin-2-yl)-1H-indole-2-carboxamido)-1H-pyrazole-1-carboxylate], 23 nM.
Under `CN(CCC#N)C(=O)c1cc2ccc(-c3nccc(Nc4ccc(-c5cn[nH]c5)cc4)n3)cc2[nH]1` [TDI01442] stands 305 nM.
As for `CN1CCN(c2ccc(NC(=O)c3cc4ccc(-c5nccc(Nc6ccc7[nH]ncc7c6)n5)cc4[nH]3)cc2)CC1` [TDI01131, 6-(4-((1H-indazol-5-yl)amino)pyrimidin-2-yl)-N-(4-(4-methylpiperazin-1-yl)phenyl)-1H-indole-2-carboxamide], the figure is 101 nM; as for `CC(C)NC(=O)c1ccc2ccc(-c3nccc(Nc4ccc5[nH]ncc5c4)n3)cc2n1` [TDI01327, 7-(4-((1H-indazol-5-yl)amino)pyrimidin-2-yl)-N-isopropylquinoline-2-carboxamide], 472 nM.
Take `CC(NC(=O)c1cc2ccc(-c3nccc(Nc4ccc5[nH]ncc5c4)n3)cc2[nH]1)c1ccccc1` (stereo not drawn) [TDI01140, 6-(4-((1H-indazol-5-yl)amino)pyrimidin-2-yl)-N-(1-phenylethyl)-1H-indole-2-carboxamide]: half-maximal inhibition (IC50) required 109 nM.
For the compound `O=C(Nc1ccc2[nH]ncc2c1)c1cc2ccc(-c3nccc(Nc4ccc5[nH]ncc5c4)n3)cc2[nH]1` [TDI01182, 6-(4-((1H-indazol-5-yl)amino)pyrimidin-2-yl)-N-(1H-indazol-5-yl)-1H-indole-2-carboxamide], 46 nM corresponded to half-maximal inhibition (IC50).
For `O=C(Nc1ccncn1)c1cc2ccc(-c3nccc(Nc4ccc5[nH]ncc5c4)n3)cc2[nH]1` [TDI01161, 6-(4-((1H-indazol-5-yl)amino)pyrimidin-2-yl)-N-(pyrimidin-4-yl)-1H-indole-2-carboxamide], the IC50 (as a rule, the midpoint of a concentration-inhibition curve) worked out at 210 nM.
In turn, `CN(C(=O)c1cc2ccc(-c3nccc(Nc4ccc(-c5cn[nH]c5)cc4)n3)cc2[nH]1)C1COC1` [TDI01344, 6-(4-((4-(1H-pyrazol-4-yl)phenyl)amino)pyrimidin-2-yl)-N-methyl-N-(oxetan-3-yl)-1H-indole-2-carboxamide] returned an IC50 of 97 nM.
Under `CC(C)OC(=O)c1cc2ccc(-c3nccc(Nc4ccc(-c5cn[nH]c5)cc4)n3)cc2[nH]1` [TDI01299, isopropyl 6-(4-((4-(1H-pyrazol-4-yl)phenyl)amino)pyrimidin-2-yl)-1H-indole-2-carboxylate] stands 463 nM; under `O=C(NC1CCOC1)c1cc2ccc(-c3nccc(Nc4ccc5[nH]ncc5c4)n3)cc2s1` (stereo not drawn) [TDI01113, 6-(4-((1H-indazol-5-yl)amino)pyrimidin-2-yl)-N-(tetrahydrofuran-3-yl)benzo[b]thiophene-2-carboxamide], 42 nM.
As for `N#CC1CN(C(=O)c2cc3ccc(-c4nccc(Nc5ccc(-c6cn[nH]c6)cc5)n4)cc3[nH]2)C1` [TDI01398, 1-(6-(4-((4-(1H-pyrazol-4-yl)phenyl)amino)pyrimidin-2-yl)-1H-indole-2-carbonyl)azetidine-3-carbonitrile], the figure is 16 nM.
Take `C[C@@H](CN)NC(=O)c1cc2ccc(-c3nccc(Nc4ccc(-c5cn[nH]c5)cc4)n3)cc2[nH]1` [TDI01856, (S)-6-(4-((4-(1H-pyrazol-4-yl)phenyl)amino)pyrimidin-2-yl)-N-(1-aminopropan-2-yl)-1H-indole-2-carboxamide]: it took 141 nM to reach half-maximal inhibition (IC50). Against the preceding compound, the IC50 is about 8.8-fold higher.
For `COc1ccc(NC(=O)c2cc3ccc(-c4nccc(Nc5ccc6[nH]ncc6c5)n4)cc3[nH]2)cn1` [TDI01315, 6-(4-((1H-indazol-5-yl)amino)pyrimidin-2-yl)-N-(6-methoxypyridin-3-yl)-1H-indole-2-carboxamide], 126 nM corresponded to half-maximal inhibition (IC50).
In the case of `CN1CCC(n2cc(NC(=O)c3cc4ccc(-c5nccc(Nc6ccc7[nH]ncc7c6)n5)cc4[nH]3)cn2)CC1` [TDI01316, 6-(4-((1H-indazol-5-yl)amino)pyrimidin-2-yl)-N-(1-(1-methylpiperidin-4-yl)-1H-pyrazol-4-yl)-1H-indole-2-carboxamide], the IC50 was 87 nM.
As for `O=C(Nc1cnoc1)c1cc2ccc(-c3nccc(Nc4ccc5[nH]ncc5c4)n3)cc2[nH]1` [TDI01156, 6-(4-((1H-indazol-5-yl)amino)pyrimidin-2-yl)-N-(isoxazol-4-yl)-1H-indole-2-carboxamide], the figure is 25 nM; as for `O=C(c1cc2ccc(-c3nccc(Nc4ccc(-c5cn[nH]c5)cc4)n3)cc2[nH]1)N1CC(C(F)(F)F)C1` [TDI01433], 13 nM.
On to `CNC(=O)c1cc2ccc(-c3nc(Nc4ccc(-c5cn[nH]c5)cc4)c4sccc4n3)cc2[nH]1` [TDI01379, 6-(4-((4-(1H-pyrazol-4-yl)phenyl)amino)thieno[3,2-d]pyrimidin-2-yl)-N-methyl-1H-indole-2-carboxamide], for which the 50% inhibitory concentration (IC50) was determined as 411 nM.
The compound `O=C(Nc1ccccc1)c1cc2ccc(-c3nccc(Nc4ccc5[nH]ncc5c4)n3)cc2[nH]1` [TDI01215, 6-(4-((1H-indazol-5-yl)amino)pyrimidin-2-yl)-N-phenyl-1H-indole-2-carboxamide] registered an IC50 of 382 nM. This IC50 and that of the compound before are within 1.5-fold of each other.
Under `O=C(Nc1ccncc1I)c1cc2ccc(-c3nccc(Nc4ccc(-c5cn[nH]c5)cc4)n3)cc2[nH]1` [TDI01829C] stands 97 nM.
Under `O=C(NC1CCOC1)c1cc2ccc(-c3nc(Nc4ccc(-c5cn[nH]c5)cc4)c4sccc4n3)cc2[nH]1` (stereo not drawn) [TDI01423, 6-(4-((4-(1H-pyrazol-4-yl)phenyl)amino)thieno[3,2-d]pyrimidin-2-yl)-N-(tetrahydrofuran-3-yl)-1H-indole-2-carboxamide] stands 264 nM.
As for `O=C(Nc1cccnc1)c1cc2ccc(-c3nccc(Nc4ccc(-c5cn[nH]c5)cc4)n3)cc2[nH]1` [TDI01397, 6-(4-((4-(1H-pyrazol-4-yl)phenyl)amino)pyrimidin-2-yl)-N-(pyridin-3-yl)-1H-indole-2-carboxamide], the figure is 120 nM.
Regarding `CC(C)NC(=O)c1cc2ccc(-c3nc(Nc4ccc5[nH]ncc5c4)c4sccc4n3)cc2s1` [TDI01136, 6-(4-((1H-indazol-5-yl)amino)thieno[3,2-d]pyrimidin-2-yl)-N-isopropylbenzo[b]thiophene-2-carboxamide], half-maximal inhibition (IC50) required 66 nM. Against the preceding compound, the IC50 is about 1.8-fold lower.
Under `COC(=O)c1ccc(NC(=O)c2cc3ccc(-c4nccc(Nc5ccc6[nH]ncc6c5)n4)cc3[nH]2)cc1` [TDI01130, methyl 4-(6-(4-((1H-indazol-5-yl)amino)pyrimidin-2-yl)-1H-indole-2-carboxamido)benzoate] stands 33 nM.
As to `O=C(NC1CC1)c1cc2ccc(-c3nccc(Nc4ccc(-c5cn[nH]c5)cc4)n3)cc2[nH]1` [TDI01324, 6-(4-((4-(1H-pyrazol-4-yl)phenyl)amino)pyrimidin-2-yl)-N-cyclopropyl-1H-indole-2-carboxamide], the half-maximal inhibitory concentration (IC50) is 101 nM.
As for `O=C(Nc1ccncc1Cl)c1cc2ccc(-c3nccc(Nc4ccc5[nH]ncc5c4)n3)cc2[nH]1` [TDI01290, 6-(4-((1H-indazol-5-yl)amino)pyrimidin-2-yl)-N-(3-chloropyridin-4-yl)-1H-indole-2-carboxamide], the figure is 46 nM.
With `O=C(c1cc2ccc(-c3nccc(Nc4ccc(-c5cn[nH]c5)cc4)n3)cc2[nH]1)N1CCO[C@@H](CO)C1` [TDI01852, (R)-(6-(4-((4-(1H-pyrazol-4-yl)phenyl)amino)pyrimidin-2-yl)-1H-indel-2-yl)(2-(hydroxymethyl)morpholino)methanone], the half-maximal inhibitory concentration (IC50) was found to be 482 nM.
As for `CN1CCN(CC(=O)n2ccc3ccc(-c4nccc(Nc5ccc6[nH]ncc6c5)n4)cc32)CC1` [TDI01230, 1-(6-(4-((1H-indazol-5-yl)amino)pyrimidin-2-yl)-1H-indol-1-yl)-2-(4-methylpiperazin-1-yl)ethan-1-one], the figure is 109 nM.
